Where two headings read alike, the source gives them in different places.
How the values were obtained:
[1] = test system: PI3-K (phosphorylation of AKT at serine 473) in BT20 cells; test: PI3-Kα cellular assay (phospho-AKT Ser473 ELISA in BT20 cells); conditions: Homo sapiens, BT-20, 1 h;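 further: lysates read by ELISA with TMB colour at 450 nm, cells given 0.5% DMSO vehicle serve as positive control and cell-free wells as negative control, duplicate wells per concentration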
mTOR = mTOR (Homo sapiens (Human), UniProt P42345)
PI3-Kα = PI3-Kα (Mus musculus (Mouse), UniProt P42337); test: PI3-Kα biochemical assay (in vitro kinase assay, fluorescence polarization); conditions: for PI3Ka Ki: Ki calculated from IC50, [ATP]=30 uM, Km=25 uM;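 on all read-outs here: Insect-cell-expressed mouse p110/p85 complex converting PI(4,5)P2, product PI(3,4,5)P3 detected by displacing TAMRA-tagged PI(3,4,5)P3 from Grip1 PH domain, lower polarization means more product, room temperature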
[2] = read-out: S473 pAKT 10% FBS IC50 (μM)
[3] = read-out: S473 pAKT 0.5% FBS IC50 (μM)

Sequence of mTOR (P42345 2156-2469): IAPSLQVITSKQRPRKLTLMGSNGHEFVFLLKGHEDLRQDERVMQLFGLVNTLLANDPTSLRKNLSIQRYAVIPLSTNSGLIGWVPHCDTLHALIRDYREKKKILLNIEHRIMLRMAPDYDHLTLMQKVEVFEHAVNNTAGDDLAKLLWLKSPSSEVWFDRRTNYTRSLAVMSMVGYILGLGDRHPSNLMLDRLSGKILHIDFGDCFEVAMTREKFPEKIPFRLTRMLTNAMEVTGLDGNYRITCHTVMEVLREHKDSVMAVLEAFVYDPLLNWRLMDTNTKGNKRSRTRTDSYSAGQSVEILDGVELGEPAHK
Sequence of PI3-Kα (P42337 whole entry, the tested form may be a part): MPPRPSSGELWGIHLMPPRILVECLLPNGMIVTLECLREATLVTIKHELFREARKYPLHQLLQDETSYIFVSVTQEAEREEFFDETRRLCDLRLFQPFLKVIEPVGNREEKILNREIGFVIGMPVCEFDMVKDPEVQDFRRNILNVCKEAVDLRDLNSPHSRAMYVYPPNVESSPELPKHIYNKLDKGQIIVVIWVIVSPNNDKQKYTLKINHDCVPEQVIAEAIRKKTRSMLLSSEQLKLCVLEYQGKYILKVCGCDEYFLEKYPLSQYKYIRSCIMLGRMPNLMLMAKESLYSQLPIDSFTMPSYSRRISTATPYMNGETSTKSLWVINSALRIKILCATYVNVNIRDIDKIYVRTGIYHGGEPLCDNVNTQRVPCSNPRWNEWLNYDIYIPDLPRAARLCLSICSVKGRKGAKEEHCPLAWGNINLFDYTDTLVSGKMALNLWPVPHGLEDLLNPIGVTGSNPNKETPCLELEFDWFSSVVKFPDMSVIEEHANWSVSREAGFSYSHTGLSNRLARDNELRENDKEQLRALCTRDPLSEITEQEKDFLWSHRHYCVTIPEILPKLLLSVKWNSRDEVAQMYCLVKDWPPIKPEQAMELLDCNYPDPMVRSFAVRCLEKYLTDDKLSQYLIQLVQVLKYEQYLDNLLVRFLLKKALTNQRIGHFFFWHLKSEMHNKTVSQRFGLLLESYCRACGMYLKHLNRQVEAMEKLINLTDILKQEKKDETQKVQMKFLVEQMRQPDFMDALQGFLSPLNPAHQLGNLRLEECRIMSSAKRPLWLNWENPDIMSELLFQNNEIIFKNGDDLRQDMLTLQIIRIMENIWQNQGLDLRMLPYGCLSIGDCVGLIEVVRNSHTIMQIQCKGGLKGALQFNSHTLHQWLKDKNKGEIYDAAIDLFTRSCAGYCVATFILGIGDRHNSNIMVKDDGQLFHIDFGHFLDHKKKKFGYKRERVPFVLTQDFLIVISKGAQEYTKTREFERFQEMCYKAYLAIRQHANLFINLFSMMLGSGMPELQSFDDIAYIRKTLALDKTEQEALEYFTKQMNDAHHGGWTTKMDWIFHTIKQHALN
Sequence of PI3-Kα (P26450 whole entry partner, the tested form may be a part): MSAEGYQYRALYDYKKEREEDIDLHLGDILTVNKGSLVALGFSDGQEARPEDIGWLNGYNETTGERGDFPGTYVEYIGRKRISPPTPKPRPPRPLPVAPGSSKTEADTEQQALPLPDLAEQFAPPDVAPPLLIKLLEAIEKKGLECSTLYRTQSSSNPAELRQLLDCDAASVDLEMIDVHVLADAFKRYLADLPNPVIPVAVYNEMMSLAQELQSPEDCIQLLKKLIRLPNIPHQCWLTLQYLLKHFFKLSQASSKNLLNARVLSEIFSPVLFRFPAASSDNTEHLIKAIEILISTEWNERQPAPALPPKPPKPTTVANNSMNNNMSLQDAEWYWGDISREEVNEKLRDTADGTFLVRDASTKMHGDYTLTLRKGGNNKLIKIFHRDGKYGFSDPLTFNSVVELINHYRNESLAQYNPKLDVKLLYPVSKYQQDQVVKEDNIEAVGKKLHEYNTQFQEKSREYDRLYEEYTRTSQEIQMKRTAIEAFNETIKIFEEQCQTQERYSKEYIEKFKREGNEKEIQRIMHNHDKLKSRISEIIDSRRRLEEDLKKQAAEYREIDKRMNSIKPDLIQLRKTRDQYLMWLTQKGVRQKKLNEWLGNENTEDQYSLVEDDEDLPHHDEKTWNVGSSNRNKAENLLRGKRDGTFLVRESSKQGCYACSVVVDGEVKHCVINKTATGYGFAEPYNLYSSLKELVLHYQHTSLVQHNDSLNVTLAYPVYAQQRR

Compound | IC50 [1, 2] [µM] | PI3Ka Ki (PI3-Kα) [nM] | other results
COc1ccc(-c2ccc3ncc4c(c3n2)n(C2CCN(C(=O)CO)CC2)c(=O)n4C)cc1 [Compound 273, 1-(1-glycoloylpiperidin-4-yl)-8-(4-methoxyphenyl)-3-methyl-1,3-dihydro-2H-imidazo[4,5-c][1,5]naphthyridin-2-one] | 0.0174 | – | Ki (mTOR): 3.42 nM
CN(C)c1ccc(-c2ccc3ncc4c(c3n2)n(C2CCN(C(=O)C(C)(C)O)CC2)c(=O)n4C)cn1 [Compound 209, 8-[6-(dimethylamino)pyridin-3-yl]-1-[1-(2-hydroxy-2-methylpropanoyl)piperidin-4-yl]-3-methyl-1,3-dihydro-2H-imidazo[4,5-c][1,5]naphthyridin-2-one] | 0.00669 | 0.264 | –
COc1ncc(-c2ccc3ncc4c(c3n2)n([C@H]2CC[C@H](O)CC2)c(=O)n4C)cn1 [Compound 169, 1-(trans-4-hydroxycyclohexyl)-8-(2-methoxypyrimidin-5-yl)-3-methyl-1,3-dihydro-2H-imidazo[4,5-c][1,5]naphthyridin-2-one] | 1 | – | Ki (mTOR): 6.39 nM
CNC(=O)Nc1ccc(-c2ccc3ncc4c(c3n2)n(C2CCN(C(=O)CO)CC2)c(=O)n4C)cc1 [Compound 245, 1-{4-[1-(1-glycoloylpiperidin-4-yl)-3-methyl-2-oxo-2,3-dihydro-1H-imidazo[4,5-c][1,5]naphthyridin-8-yl]phenyl}-3-methylurea] | – | 2.19 | Ki (mTOR): 2.03 nM
CCNC(=O)N1CCC(n2c(=O)n(C)c3cnc4ccc(-c5cnc6ccccc6c5)nc4c32)CC1 [Compound 124, N-ethyl-4-(3-methyl-2-oxo-8-quinolin-3-yl-2,3-dihydro-1H-imidazo[4,5-c][1,5]naphthyridin-1-yl)piperidine-1-carboxamide] | – | – | IC50 [1, 3]: 0.017 µM
COc1ncc(-c2ccc3ncc4c(c3n2)n([C@H]2CC[C@H](C(N)=O)CC2)c(=O)n4C)cn1 [Compound 157, trans-4-[8-(2-methoxypyrimidin-5-yl)-3-methyl-2-oxo-2,3-dihydro-1H-imidazo[4,5-c][1,5]naphthyridin-1-yl]cyclohexanecarboxamide] | 0.0456 | – | –
COc1ccc(-c2ccc3ncc4c(c3n2)n(C2CCOCC2)c(=O)n4CCO)cn1 [Compound 219, 3-(2-hydroxyethyl)-8-(6-methoxypyridin-3-yl)-1-(tetrahydro-2H-pyran-4-yl)-1,3-dihydro-2H-imidazo[4,5-c][1,5]naphthyridin-2-one] | – | 75.7 | Ki (mTOR): 47.2 nM
Cc1ccc(-c2ccc3ncc4c(c3n2)n(C2CCOCC2)c(=O)n4CCO)cn1 [Compound 218, 3-(2-hydroxyethyl)-8-(6-methylpyridin-3-yl)-1-(tetrahydro-2H-pyran-4-yl)-1,3-dihydro-2H-imidazo[4,5-c][1,5]naphthyridin-2-one] | 0.428 | 45.4 | –
C[C@H](CO)n1c(=O)n(C)c2cnc3ccc(-c4cnn(C)c4)nc3c21 [Compound 232, 1-[(1R)-2-hydroxy-1-methylethyl]-3-methyl-8-(1-methyl-1H-pyrazol-4-yl)-1,3-dihydro-2H-imidazo[4,5-c][1,5]naphthyridin-2-one] | – | 143 | Ki (mTOR): 521 nM
Cn1c(=O)n([C@H]2CC[C@H](O)CC2)c2c3nc(-c4cnc5[nH]ncc5c4)ccc3ncc21 [Compound 268, 1-(trans-4-hydroxycyclohexyl)-3-methyl-8-(1H-pyrazolo[3,4-b]pyridin-5-yl)-1,3-dihydro-2H-imidazo[4,5-c][1,5]naphthyridin-2-one] | 0.0133 | 0.366 | –
Cn1c(=O)n(C2CCN(C(=O)CO)CC2)c2c3nc(-c4ccnc5[nH]ncc45)ccc3ncc21 [Compound 252, 1-(1-glycoloylpiperidin-4-yl)-3-methyl-8-(1H-pyrazolo[3,4-b]pyridin-4-yl)-1,3-dihydro-2H-imidazo[4,5-c][1,5]naphthyridin-2-one] | – | 0.832 | Ki (mTOR): 1.77 nM
CNC(=O)Nc1ccc(-c2ccc3ncc4c(c3n2)n(C2CCN(C(=O)[C@H](C)O)CC2)c(=O)n4C)cc1 [Compound 244, 1-[4-(1-{1-[(2S)-2-hydroxypropanoyl]piperidin-4-yl}-3-methyl-2-oxo-2,3-dihydro-1H-imidazo[4,5-c][1,5]naphthyridin-8-yl)phenyl]-3-methylurea] | 0.0815 | 1.94 | –
C[C@H](CO)n1c(=O)n(C)c2cnc3ccc(-c4cnc5ccccc5c4)nc3c21 [Compound 234, 1-[(1R)-2-hydroxy-1-methylethyl]-3-methyl-8-quinolin-3-yl-1,3-dihydro-2H-imidazo[4,5-c][1,5]naphthyridin-2-one] | – | 57.3 | –
CN(C)c1ccc(-c2ccc3ncc4c(c3n2)n(C2CCOCC2)c(=O)n4CCO)cn1 [Compound 222, 8-[6-(dimethylamino)pyridin-3-yl]-3-(2-hydroxyethyl)-1-(tetrahydro-2H-pyran-4-yl)-1,3-dihydro-2H-imidazo[4,5-c][1,5]naphthyridin-2-one] | – | 319 | Ki (mTOR): 50.1 nM
Cn1c(=O)n(C2CCOCC2)c2c3nc(-c4ccn[nH]4)ccc3ncc21 [Compound 202, 3-methyl-8-(1H-pyrazol-5-yl)-1-(tetrahydro-2H-pyran-4-yl)-1,3-dihydro-2H-imidazo[4,5-c][1,5]naphthyridin-2-one] | 0.309 | 28.3 | –
Cn1c(=O)n([C@H]2CC[C@H](O)CC2)c2c3nc(-c4cc[nH]n4)ccc3ncc21 [Compound 174, 1-(trans-4-hydroxycyclohexyl)-3-methyl-8-(1H-pyrazol-3-yl)-1,3-dihydro-2H-imidazo[4,5-c][1,5]naphthyridin-2-one] | 0.264 | 23.3 | –
COc1ccc(-c2ccc3ncc4c(c3n2)n(C2CCN(C(=O)[C@H](C)O)CC2)c(=O)n4C)cc1 [Compound 272, 1-{1-[(2S)-2-hydroxypropanoyl]piperidin-4-yl}-8-(4-methoxyphenyl)-3-methyl-1,3-dihydro-2H-imidazo[4,5-c][1,5]naphthyridin-2-one] | 0.014 | 1.84 | –
Cn1c(=O)n([C@H]2CC[C@H](O)CC2)c2c3nc(-c4cccc5[nH]ccc45)ccc3ncc21 [Compound 236, 1-(trans-4-hydroxycyclohexyl)-8-(1H-indo1-4-yl)-3-methyl-1,3-dihydro-2H-imidazo[4,5-c][1,5]naphthyridin-2-one] | 0.00961 | – | –
COc1ccccc1-c1ccc2ncc3c(c2n1)n(C1CCN(C(=O)CO)CC1)c(=O)n3C [Compound 279, 1-(1-glycoloylpiperidin-4-yl)-8-(2-methoxyphenyl)-3-methyl-1,3-dihydro 2H-imidazo[4,5-c][1,5]naphthyridin-2-one] | – | 118 | –
COc1ncc(-c2ccc3ncc4c(c3n2)n(-c2ccc(C(C)(C)C#N)cc2)c(=O)n4C)cn1 [Compound 112, 2-(4-(8-(2-methoxypyrimidin-5-yl)-3-methyl-2-oxo-2,3-dihydroimidazo[4,5-c][1,5]naphthyridin-1-yl)phenyl)-2-methylpropanenitrile] | – | 6.09 | IC50 [1, 3]: 0.0272 µM
Cn1c(=O)n(C2CCOCC2)c2c3nc(-c4cnc(N)nc4)ccc3ncc21 [Compound 210, 8-(2-aminopyrimidin-5-yl)-3-methyl-1-(tetrahydro-2H-pyran-4-yl)-1,3-dihydro-2H-imidazo[4,5-c][1,5]naphthyridin-2-one] | 0.00694 | – | –
Cn1cc(-c2ccc3ncc4c(c3n2)n(C2CCN(CC(F)(F)F)CC2)c(=O)n4C)cn1 [Compound 151, 3-methyl-8-(1-methyl-1H-pyrazol-4-yl)-1-[1-(2,2,2-trifluoroethyl)piperidin-4-yl]-1,3-dihydro-2H-imidazo[4,5-c][1,5]naphthyridin-2-one] | 0.195 | – | –
COc1ccc(-c2ccc3ncc4c(c3n2)n(CCN2CCOCC2)c(=O)n4C)cn1 [Compound 269, 8-(6-methoxypyridin-3-yl)-3-methyl-1-(2-morpholin-4-ylethyl)-1,3-dihydro-2H-imidazo[4,5-c][1,5]naphthyridin-2-one] | – | 12.2 | Ki (mTOR): 27.8 nM
Cn1cc(-c2ccc3ncc4c(c3n2)n([C@H]2CC[C@H](C(N)=O)CC2)c(=O)n4C)cn1 [Compound 158, trans-4-[3-methyl-8-(1-methyl-1H-pyrazol-4-yl)-2-oxo-2,3-dihydro-1H-imidazo[4,5-c][1,5]naphthyridin-1-yl]cyclohexanecarboxamide] | 0.224 | – | –
COc1ccccc1-c1ccc2ncc3c(c2n1)n(C1CCN(C(C)=O)CC1)c(=O)n3C [Compound 280, 1-(1-acetylpiperidin-4-yl)-8-(2-methoxyphenyl)-3-methyl-1,3-dihydro-2H-imidazo[4,5-c][1,5]naphthyridin-2-one] | – | – | Ki (PI3-Kα; read-out: PI3Ka Ki): 292 nM
COCC(=O)N1CCC(n2c(=O)n(C)c3cnc4ccc(-c5cnc(OC)nc5)nc4c32)CC1 [Compound 161, 1-[1-(methoxyacetyl)piperidin-4-yl]-8-(2-methoxypyrimidin-5-yl)-3-methyl-1,3-dihydro-2H-imidazo[4,5-c][1,5]naphthyridin-2-one] | 0.0123 | – | –
CC(=O)N1CCC(n2c(=O)n(C)c3cnc4ccc(-c5cccc(-n6cccn6)c5)nc4c32)CC1 [Compound 247, 1-(1-acetylpiperidin-4-yl)-3-methyl-8-[3-(1H-pyrazol-1-yl)phenyl]-1,3-dihydro-2H-imidazo[4,5-c][1,5]naphthyridin-2-one] | – | 17.6 | –
COc1ncc(-c2ccc3ncc4c(c3n2)n(C2CCN(C(=O)CN(C)C)CC2)c(=O)n4C)cn1 [Compound 183, 1-[1-(N,N-dimethylglycyl)piperidin-4-yl]-8-(2-methoxypyrimidin-5-yl)-3-methyl-1,3-dihydro-2H-imidazo[4,5-c][1,5]naphthyridin-2-one] | 0.175 | 28.7 | –

Reference: US8791131B2, “Imidazo[1,5]naphthyridine compounds, their pharmaceutical use and compositions” (Pfizer Inc., priority 2008, dated 2014)
